Data: US8716242B2, “β-hairpin peptidomimetics” (priority 2009, dated 2014)
Bridge positions count the residues as written; N and C are the ends. Square brackets hold non-standard residues; d marks the D form. Side chains are listed from the residue outwards. Peptide text beside a SMILES is read from it. * marks the point of attachment. Cholyl = C[C@H](CCC(=O)*)[C@H]1CC[C@H]2[C@@H]3[C@H](O)C[C@@H]4C[C@H](O)CC[C@]4(C)[C@H]3C[C@H](O)[C@]12C; Adamantane1carbonyl = O=C(C12CC3CC(CC(C3)C1)C2)*; NH(1-Adamantyl) = C1C2CC3CC1CC(N*)(C2)C3; Octanoyl = CCCCCCCC(=O)*; Dab = NCC[C@H](N)C(=O)O

Tests used:
[1] = Cytotoxicity, MTT reduction assay, HELA cells; type: cell-based; settings: 48 h, 12.5-50 μM
Method: (§1) Mouse pre-B cells were cultured in RPMI1640 plus 5% FBS, antibiotic/antimycotic, non essential amino acid, 50 μM β-mercaptoethanol and 1 mM natrium pyruvate. HELA cells were maintained in RPMI1640 plus 10% FBS, pen/strept and 2 mM L-glutamine. Cos-7 cells were grown in DMEM medium with […] glucose supplemented with 10% FCS, pen/strept and 2 mM L-glutamine. All cell lines were grown at 37° C. at 5% CO2. Cell media, media supplements, PBS-buffer, HEPES, antibiotic/antimycotic, pen/strept, non essential amino acid, L-glutamine, β-mercaptoethanol and sera were purchased from Gibco (Pailsey, UK). All fine chemicals were supplied by Merck (Darmstadt, Germany).
(§2) The cytotoxicity of the peptides to HELA cells (Acc57) and COS-7 cells (CRL-1651) was determined using the MTT reduction assay (T. Mossman, J. Immunol. Meth. 1983, 65, 55-63; M. V. Berridge, A. S. Tan, Arch. Biochem. Biophys. 1993, 303, 474-482). Briefly, the method was as follows: 4000 HELA cells/well and 3400 COS-7 cells/well were seeded and grown in 96-well microtiter plates for 24 h at 37° C. at 5% CO2. Thereafter, time zero (Tz) was determined by MTT reduction (see below). The supernatant of the remaining wells was discarded, and fresh medium and compounds in serial dilutions (12.5, 25 and 50 μM, triplicates) were pipetted into the wells. After incubation of the cells for 48 h at 37° C. at 5% CO2 the supernatant was discarded again and 100 μL MTT reagent (0.5 mg/mL in RPMI1640 and DMEM, respectively)/well was added. Following incubation at 37° C. for 2-4 h the media were aspirated and the cells were spiked (100 μL isopropanol/well). The absorbance of the solubilized formazan was measured at 595 nm (OD595peptide). For each concentration averages were calculated from triplicates. The percentage of growth was calculated as follows: (OD595peptide-OD595Tz-OD595Empty well)/(OD595Tz-OD595Empty well)×100%. The GI50 (Growth Inhibition) concentrations were calculated for each peptide by using a trend line function for the concentrations (50, 25, 12.5 and 0 μM), the corresponding percentages and the value 50, (=TREND (C50: C0, %50:%0,50).

[2] = Plasma stability in human plasma; type: in vitro ADME; settings: human plasma, 37° C.; for remaining at 24 h, 10 μM: 1440 min, read-out: human pl. cpd left at 1440 min; for human pl. T1/2 / half-life: up to 1440 min; for half-life: read-out: human pl. T1/2
Method: Percent hemolysis was calculated as follows: (OD540peptide/OD540H2O)×100%. 2.6. Plasma Stability
The stability of the peptides in human and mouse plasma was determined by applying the following method: 346.5 μL/deep well of freshly thawed human plasma (Basler Blutspendedienst) and mouse plasma (Harlan Sera-Lab, UK), respectively, were spiked with 3.5 μL/well of compound dissolved in DMSO/H2O ([…] [v/v], 1 mM, triplicate) and incubated at 37° C. At t=0, 15, 30, 60, 120, 240 and 1440 min aliquots of 50 μL were transferred to filtration plate wells containing 150 μL/well of 2% formic acid in acetonitrile. Following shaking for 2 min the occurred suspensions were filtrated by vacuum and 50 μL of each filtrate was mixed with 100 μL of 1% formic acid in H2O. After transfer to a propylene microtiter plate, the filtrates were analyzed by LC/MS as follows: Column: Waters, XBridge C18, mobile phases: (A) water+0.1% formic acid and (B) acetonitrile/water, 95/5 (v/v)+0.1% formic acid, gradient: 5%-100% (B) in 2 minutes, electrospray ionization, MRM detection (triple quadrupole). The peak areas were determined and triplicate values are averaged. The stability is expressed in percent of the initial value at t=0. (tx/t0×100). By using the TREND function of EXCEL (Microsoft Office 2003) T1/2 were determined.

[3] = Cytotoxicity, MTT reduction assay, COS-7 cells; type: cell-based; settings: 48 h, 12.5-50 μM
Method: as §1, §2

Structure (SMILES) | GI50 [1] [µM] | remaining at 24 h, 10 μM [2] [%] | human pl. T1/2 [2] [h] | GI50 [3] [µM] | GI50 ([1]; HELA cells) [µM] | half-life [2] [h] | GI50 ([3]; COS-7 cells) [µM]
C[C@@H](O)[C@@H]1NC(=O)[C@H](Cc2c[nH]cn2)NC(=O)[C@H](Cc2ccc(O)cc2)NC(=O)[C@@H]2CCCN2C(=O)[C@H]2CCCN2C(=O)[C@H](CCC(N)=O)NC(=O)[C@H](CCC(=O)NC23CC4CC(CC(C4)C2)C3)NC(=O)[C@H](Cc2ccc(O)cc2)NC(=O)[C@@H]2CSSC[C@H](NC1=O)C(=O)N[C@@H](CCCNC(=N)N)C(=O)NCC(=O)N1CCC[C@@H]1C(=O)N[C@@H](CCN)C(=O)N[C@@H](CCCNC(=N)N)C(=O)N[C@@H](Cc1ccc(O)cc1)C(=O)N2 [Ex. 31] (cyclo(YHTCRG[dP][Dab]RYCYE(NH(1-Adamantyl))Q[dP]P); disulfide 4-11) | > 37 | 68 | 24 | > 50 |  |  | 
CCCCCCCC(=O)NCCCC[C@@H]1NC(=O)[C@H](CCC(N)=O)NC(=O)[C@H](Cc2ccc(O)cc2)NC(=O)[C@@H]2CSSC[C@H](NC(=O)[C@H](Cc3ccc(O)cc3)NC(=O)[C@H](CCCNC(=N)N)NC(=O)[C@H](Cc3ccc(O)cc3)NC(=O)[C@@H]3CCCN3C(=O)[C@H]3CCCN3C1=O)C(=O)N[C@@H](CO)C(=O)N[C@@H](C)C(=O)N1CCC[C@@H]1C(=O)N[C@@H](CCN)C(=O)N[C@@H](CCCNC(=N)N)C(=O)N[C@@H](Cc1ccc(O)cc1)C(=O)N2 [Ex. 32] (cyclo(YRYCSA[dP][Dab]RYCYQK(Octanoyl)[dP]P); disulfide 4-11) |  | 39 |  |  | > 24 | 12.9 | > 50
C[C@@H]1NC(=O)[C@H](CO)NC(=O)[C@@H]2CSSC[C@H](NC(=O)[C@H](Cc3ccc(O)cc3)NC(=O)[C@H](CCCNC(=N)N)NC(=O)[C@H](CCN)NC(=O)[C@H]3CCCN3C1=O)C(=O)N[C@@H](Cc1ccc(O)cc1)C(=O)N[C@@H](CCC(N)=O)C(=O)N[C@@H](CCCCNC(=O)CNC(=O)CC[C@@H](C)[C@H]1CC[C@H]3[C@@H]4[C@H](O)C[C@@H]5C[C@H](O)CC[C@]5(C)[C@H]4C[C@H](O)[C@]13C)C(=O)N1CCC[C@@H]1C(=O)N1CCC[C@H]1C(=O)N[C@@H](Cc1ccc(O)cc1)C(=O)N[C@@H](CCCNC(=N)N)C(=O)N[C@@H](Cc1ccc(O)cc1)C(=O)N2 [Ex. 33] (cyclo(YRYCSA[dP][Dab]RYCYQK([Gly-Cholyl])[dP]P); disulfide 4-11) |  | 61 |  |  | > 18 | 20.4 | > 50
C[C@@H](O)[C@@H]1NC(=O)[C@H](Cc2c[nH]cn2)NC(=O)[C@H](Cc2ccc(O)cc2)NC(=O)[C@@H]2CCCN2C(=O)[C@H]2CCCN2C(=O)[C@H](CCCCNC(=O)C23CC4CC(CC(C4)C2)C3)NC(=O)[C@H](CCC(N)=O)NC(=O)[C@H](Cc2ccc(O)cc2)NC(=O)[C@@H]2CSSC[C@H](NC1=O)C(=O)N[C@@H](CCCNC(=N)N)C(=O)NCC(=O)N1CCC[C@@H]1C(=O)N[C@@H](CCN)C(=O)N[C@@H](CCCNC(=N)N)C(=O)N[C@@H](Cc1ccc(O)cc1)C(=O)N2 [Ex. 35] (cyclo(YHTCRG[dP][Dab]RYCYQK(Adamantane1carbonyl)[dP]P); disulfide 4-11) | > 50 | 63 | 24 | > 30 |  |  | 
C[C@@H](O)[C@@H]1NC(=O)[C@H](Cc2c[nH]cn2)NC(=O)[C@H](Cc2ccc(O)cc2)NC(=O)[C@@H]2CCCN2C(=O)[C@H]2CCCN2C(=O)[C@H](CCC(=O)NC23CC4CC(CC(C4)C2)C3)NC(=O)[C@H](CCC(N)=O)NC(=O)[C@H](Cc2ccc(O)cc2)NC(=O)[C@@H]2CSSC[C@H](NC1=O)C(=O)N[C@@H](CCCNC(=N)N)C(=O)NCC(=O)N1CCC[C@@H]1C(=O)N[C@@H](CCN)C(=O)N[C@@H](CCCNC(=N)N)C(=O)N[C@@H](Cc1ccc(O)cc1)C(=O)N2 [Ex. 36] (cyclo(YHTCRG[dP][Dab]RYCYQE(NH(1-Adamantyl))[dP]P); disulfide 4-11) | > 50 | 53 |  | > 50 |  | 23.2 | 
